According to the CheMixHub viscosity set:
“And” between values parts separate entries of the source, which are not always exact repeats. Equal values may be shown once. ± gives the uncertainty stated by the source.

Experiment: xn = mol fraction of the nth substance listed

O=C(O)/C=C\C(=O)O + O
viscosity [mPa·s], 101.32 kPa
Conditions | x1 = 0.0171 | x1 = 0.03648 | x1 = 0.06231 | x1 = 0.0943 | x1 = 0.145
298.15 K | 1.092 ± 0.026 | 1.349 ± 0.03 | 1.775 ± 0.035 | 2.459 ± 0.043 | –
313.15 K | 0.792 ± 0.019 | 0.968 ± 0.021 | 1.255 ± 0.025 | 1.702 ± 0.03 | 2.54 ± 0.039

OCC(F)(F)C(F)F + O
viscosity [mPa·s], 100 kPa
Conditions | x1 = 0.1237 | x1 = 0.2532 | x1 = 0.3747 | x1 = 0.5024 | x1 = 0.6133 | x1 = 0.7598 | x1 = 0.8707
298.15 K | 2.07 ± 0.063 | 2.716 ± 0.078 | 3.002 ± 0.081 | 3.314 ± 0.084 | 3.523 ± 0.085 | 3.91 ± 0.089 | 4.341 ± 0.095
323.15 K | 1.032 ± 0.032 | 1.34 ± 0.039 | 1.478 ± 0.04 | 1.59 ± 0.041 | 1.678 ± 0.041 | 1.807 ± 0.041 | 1.961 ± 0.043

[Li+].[O-][Cl+3]([O-])([O-])[O-] + O=S1(=O)CCCC1
101 kPa, x1 = 0.1
Conditions | viscosity
303.15 K | 28.58 ± 2.9 mPa·s and 28.57 ± 2.9 mPa·s
308.15 K | 24.56 ± 2.5 mPa·s
313.15 K | 20.83 ± 2.1 mPa·s
318.15 K | 18.28 ± 1.8 mPa·s
323.15 K | 16.02 ± 1.6 mPa·s

OC1CCCCCCC1 + OCCO
viscosity [mPa·s], 100 kPa
Conditions | 293.15 K | 298.15 K | 303.15 K | 308.15 K | 313.15 K | 318.15 K
x1 = 0.0094 | 20.68 ± 3 | 16.94 ± 3 | 13.8 ± 3 | 11.25 ± 3 | 9.588 ± 3 | 7.888 ± 3
x1 = 0.0394 | 21.39 ± 3 | 17.13 ± 3 | 13.91 ± 3 | 11.23 ± 3 | 9.61 ± 3 | 7.891 ± 3
x1 = 0.0577 | 21.55 ± 3 | 17.25 ± 3 | 13.99 ± 3 | 11.26 ± 3 | 9.627 ± 3 | 7.892 ± 3
x1 = 0.0877 | 21.87 ± 3 | 17.42 ± 3 | 14.13 ± 3 | 11.32 ± 3 | 9.649 ± 3 | 7.894 ± 3
x1 = 0.0999 | 21.97 ± 3 | 17.51 ± 3 | 14.16 ± 3 | 11.34 ± 3 | 9.664 ± 3 | 7.895 ± 3
x1 = 0.196 | 23.21 ± 3 | 18.26 ± 3 | 14.61 ± 3 | 11.54 ± 3 | 9.751 ± 3 | 7.903 ± 3
x1 = 0.3048 | 24.11 ± 3 | 20.09 ± 3 | 15.23 ± 3 | 11.92 ± 3 | 9.992 ± 3 | 7.975 ± 3
x1 = 0.3968 | 28.39 ± 3 | 21.73 ± 3 | 16.84 ± 3 | 13.28 ± 3 | 11.14 ± 3 | 9.079 ± 3
x1 = 0.4992 | 32.09 ± 3.1 | 25.61 ± 3 | 20.38 ± 3 | 16.11 ± 3 | 13.47 ± 3 | 10.83 ± 3
x1 = 0.5876 | 42.39 ± 3.1 | 31.92 ± 3.1 | 25.48 ± 3 | 19.91 ± 3 | 16.45 ± 3 | 13.04 ± 3
x1 = 0.6991 | 59.53 ± 3.1 | 45.81 ± 3.1 | 35.59 ± 3.1 | 27 ± 3 | 21.75 ± 3 | 16.79 ± 3
x1 = 0.7995 | 87.86 ± 3.4 | 66.12 ± 3.1 | 49.1 ± 3.1 | 35.98 ± 3.1 | 28.14 ± 3 | 21.15 ± 3
x1 = 0.8976 | 130 ± 4.9 | 94 ± 3.6 | 71 ± 3.2 | 49.5 ± 3.1 | 39 ± 3.1 | 28 ± 3

C1=CCCCC1 + c1ccccc1
303.15 K, 101 kPa
Conditions | viscosity [mPa·s]
x1 = 0.1198 | 0.57 ± 0.007
x1 = 0.2756 | 0.568 ± 0.007
x1 = 0.3442 | 0.569 ± 0.007
x1 = 0.4509 | 0.566 ± 0.007
x1 = 0.4904 | 0.566 ± 0.007
x1 = 0.6697 | 0.568 ± 0.007
x1 = 0.7561 | 0.568 ± 0.007
x1 = 0.8665 | 0.571 ± 0.007

CC1CCCCC1 + c1ccccc1
303.15 K, 101 kPa
Conditions | viscosity [mPa·s]
x1 = 0.203 | 0.5138 ± 0.0038
x1 = 0.2997 | 0.5057 ± 0.0038
x1 = 0.4008 | 0.5059 ± 0.0038
x1 = 0.5041 | 0.5117 ± 0.0038
x1 = 0.604 | 0.5205 ± 0.0039
x1 = 0.7992 | 0.5611 ± 0.004
x1 = 0.9027 | 0.5961 ± 0.0042

CCCCCl + c1ccccc1
viscosity [mPa·s], 101 kPa
Conditions | 298.15 K | 308.15 K | 318.15 K | 323.15 K
x1 = 0.098 | 0.557 | 0.492 | 0.437 | 0.417
x1 = 0.153 | 0.542 | 0.481 | 0.428 | 0.404
x1 = 0.8 | 0.454 | – | – | 0.358

CCCNCCC + c1ccccc1
viscosity [mPa·s], 101 kPa
Conditions | x1 = 0.0105 | x1 = 0.02072 | x1 = 0.0306 | x1 = 0.03896 | x1 = 0.05078 | x1 = 0.06138 | x1 = 0.07232 | x1 = 0.08121 | x1 = 0.09171
303.15 K | 0.5622 ± 0.0043 | 0.5617 ± 0.0043 | 0.561 ± 0.0043 | 0.5607 ± 0.0043 | 0.5602 ± 0.0043 | 0.5588 ± 0.0043 | 0.5575 ± 0.0043 | 0.5554 ± 0.0043 | 0.5542 ± 0.0043
313.15 K | 0.4915 ± 0.0039 | 0.4902 ± 0.0039 | 0.4897 ± 0.0039 | 0.489 ± 0.0039 | 0.488 ± 0.0039 | 0.4872 ± 0.0039 | 0.4861 ± 0.0039 | 0.4851 ± 0.0039 | 0.4839 ± 0.0039

CCOC(=O)c1ccccc1 + c1ccccc1
298.15 K, 101 kPa
Conditions | viscosity [mPa·s]
x1 = 0.1302 | 0.7244 ± 0.019
x1 = 0.3809 | 1.018 ± 0.027
x1 = 0.522 | 1.2 ± 0.032
x1 = 0.6112 | 1.327 ± 0.035
x1 = 0.7595 | 1.557 ± 0.041
x1 = 0.848 | 1.709 ± 0.045

Cc1cccc([N+](=O)[O-])c1 + c1ccccc1
303.15 K, 101.33 kPa
Conditions | viscosity [mPa·s]
x1 = 0.2 | 0.7 ± 0.015
x1 = 0.395 | 0.85 ± 0.014
x1 = 0.599 | 1.09 ± 0.015
x1 = 0.804 | 1.44 ± 0.016

CNS(C)(=O)=O + c1ccncc1
303.15 K, 101.33 kPa
Conditions | viscosity [mPa·s]
x1 = 0.1002 | 1.039 ± 0.027
x1 = 0.1975 | 1.31 ± 0.034
x1 = 0.2809 | 1.61 ± 0.042
x1 = 0.403 | 2.214 ± 0.058
x1 = 0.5037 | 2.832 ± 0.074
x1 = 0.5728 | 3.346 ± 0.088
x1 = 0.7024 | 4.52 ± 0.12
x1 = 0.8 | 5.676 ± 0.15
x1 = 0.894 | 6.925 ± 0.18

O=C(Nc1ccccc1)c1ccccc1 + c1ccncc1
298.15 K, 101 kPa
Conditions | viscosity [mPa·s]
x1 = 0.0224 | 1.027 ± 0.21
x1 = 0.0382 | 1.121 ± 0.22
x1 = 0.05536 | 1.252 ± 0.25

CCCC[n+]1ccn(C)c1.N#C[S-] + c1ccsc1
100 kPa
Conditions | viscosity [mPa·s]
298.15 K, x1 = 0.754 | 31.95 ± 1.7
308.15 K, x1 = 0.857 | 28.75 ± 1.5
